The source of these data is patent publication US10285977B2, “Compositions and methods for treating alopecia” (David Weinstein Consulting, Inc., priority 2015, dated 2019).

In assay [1] the test system is mouse dorsal skin. Briefly: Punch biopsies of mouse dorsal skin treated topically with RT175. The format is in vivo, mice. As to the method:
Mice underwent 5 millimeter, full thickness, punch biopsies of their dorsal skin. Mice were then treated topically with 120 nanograms (“ng”) of RT175, daily.

Assay [2] deals with T1, FKBP52 (Homo sapiens, UniProt Q02790).
T1 construct: endogenous in cells
T1 sequence (Q02790 1-459): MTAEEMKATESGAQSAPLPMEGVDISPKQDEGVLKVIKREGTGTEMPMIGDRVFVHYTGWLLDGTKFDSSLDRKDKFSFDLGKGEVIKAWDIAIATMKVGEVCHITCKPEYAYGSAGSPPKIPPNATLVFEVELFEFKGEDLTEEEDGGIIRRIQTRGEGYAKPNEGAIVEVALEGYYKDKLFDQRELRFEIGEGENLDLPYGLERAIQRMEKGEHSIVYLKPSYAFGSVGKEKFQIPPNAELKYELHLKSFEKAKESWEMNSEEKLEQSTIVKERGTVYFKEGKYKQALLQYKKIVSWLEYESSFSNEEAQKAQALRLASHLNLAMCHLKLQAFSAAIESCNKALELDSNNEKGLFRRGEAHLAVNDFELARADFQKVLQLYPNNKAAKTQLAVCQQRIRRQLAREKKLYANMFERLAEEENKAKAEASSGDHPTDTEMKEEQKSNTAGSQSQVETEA
The note with it: fibroblasts treated for 2 hours; cited from earlier work.

The test system of assay [3] is scalp. Put plainly: Scalp closure following craniotomy in rats treated with RT175. The format is in vivo. Conditions: RT175 treatment. An excerpt:
Rats which had undergone brain surgery to test RT175 mediated regeneration of the brain following stroke. Following surgery, the scalp was closed.

Assay [4] deals with T2, FK506 binding protein 4 (“FKBP52”) (Homo sapiens, UniProt Q02790).
T2 sequence (Q02790 1-459): T1 sequence (Q02790 1-459)
Conditions: cited from earlier work.

For assay [5], the system named is hair growth. The note with it: shaved mice; cited from earlier work.
The subject of assay [6] is hair. Conditions: rats after craniotomy prior to neurosurgery; cited from earlier work.
Assay [7] relates to skin lesions. Put plainly: Skin lesions in pig treated topically with RT175. The class given is in vivo. Conditions: single pig, 120 ng topically daily. As to the method:
A single pig underwent bilateral, slit thickness, skin surgery leaving lesions on opposite sides of the pig. One of these lesions was then treated topically with 120 ng of RT175, daily. The other lesion was treated with vehicle only. […] See FIG. 3 and compare 3(b) to 3(a). The de novo hair growth is consistent with the regeneration of the upper hair follicles, most of which would have been removed as the […] sliced through the skin in creating the split thickness wounds.

In assay [8] the test system is androgenic alopecia. Briefly: person with androgenic alopecia treated topically with RT175 and RT175/minoxidil. The format is in vivo, human. The note with it: 4 months; 120 ng/mL RT175, 1 mL twice daily on crown. The procedure:
The subject went on treatment holiday for 1 month, before beginning treatment with 120 ng/mL of RT175 and 5% w/v minoxidil in 30% w/v ethanol, 50% w/v propylene glycol and 20% w/v water. FIG. 4(c) depicts the subjects scalp before initiation of the second round of treatment.

The subject of assay [9] is dermabrasion lesions of dorsal skin. Briefly: Dermabrasion lesions of dorsal skin of mice treated with RT1061. The class given is in vivo, ICR mice. Conditions: 5 μL of 100 nanomolar topically once daily, 10 days. As to the method: Retired ICR breeder mice of both sexes with weight between 45 and 50 grams were shaved and rasped to induce dermabrasion lesions. The animals were then randomly assigned (5 per treatment arm) to one of two groups to receive either 5 μL of 100 nanomolar RT1061 or a vehicle control. RT1061 or vehicle control was applied topically to the lesion site once each day including immediately after dermabrasion.

For assay [10], the system named is androgenetic alopecia. Conditions: at 6-months, cited from earlier work.

Some results are limits rather than exact numbers.

Take `CCC(C)(C)C(=O)C(=O)N1CCC[C@H]1C(=O)O` [RT175]: the “healing of the wound site versus vehicle” value in assay [1] (5 days after punch biopsy, 120 ng RT175 topically daily) is reported as “clearly accelerated”. In assay [1] (9 days after punch biopsy, 120 ng topically daily), the “treated wounds completely closed” value was 80%. Further, the “hair regeneration in the wound” value in assay [1] (9 days after punch biopsy, intact follicles even in the middle of the wound) is on record as “robust hair regeneration”. In addition, the “time for the other 20% of treated wounds to close” value in assay [1] (after day 9, 120 ng topically daily) was ≤ 18 h. Besides, in [2], the FKBP52 localisation entry was “translocation of FKBP52 to the nucleus”. Moreover, in assay [3], the “scalp closure after brain surgery” value is “full scalp closure”. Moreover, the binding affinity result in [4] was “high affinity”. For the same molecule, the hair growth result in [5] is “induce hair growth”. Further, the hair regrowth result in assay [6] is listed as “re-grow hair”. Further, in assay [7], the “hair regeneration in the lesion” value is recorded as “regeneration of hair”; the “lesion healing versus vehicle-treated lesion” value was “early and transient appearance of granulation tissue, followed by rapid revascularization, invasion of newly formed skin from wound edges, accelerated repigmentation”. The hair growth entry in assay [8] was “absence of hair growth”.

For the molecule `CCC(C)(C)C(=O)C(=O)N1CCCC1Cc1ccccc1` (stereo not shown) [RT1061], in assay [9], the hair growth result is “rapid hair growth” and the skin regeneration result is given as “rapid regeneration of rasped skin”.

`Nc1cc(N2CCCCC2)nc(N)[n+]1[O-]` [minoxidil]: the “treated individuals who maintained existing hair with no additional loss” value in assay [10] was 50%. Besides, the “treated individuals with new hair growth” value in [10] (minoxidil treatment) is 15%.
